The source of these data is paper PMC11148772, “Inhibition of protein translational machinery in triple-negative breast cancer as a promising therapeutic strategy” (Cell Reports Medicine, 2024).

Molecules are shown by their SMILES.

In data set [1] the test system is MDA-MB-468 tumor xenograft. The experiment in a line: Subcutaneous tumor xenograft. It counts as in vivo, mouse. As to conditions: 50 mg/kg oral gavage, NSG mice. The method, then:
(§1) Female NOD-Scid gamma (NSG, Homozygous for Prkdc, Hemizygous for Il2rg<tm1Wjl>) (Strain #005557) and Balb/cJ (Strain#000651) (7–8 weeks old) mice were purchased from the Jackson Laboratory and housed under standard laboratory conditions. The Institutional Animal Care & Use Program of Oregon Health and Science University approved the protocol (#IP00003247). MDA-MB-231 (3 x 10^6), MDA-MB-468 (5 x 10^6), 4T1 (1 x 10^5) and EMT6 (1 x 10^5) cells were suspended in 100 μL of 1x PBS and injected subcutaneously in each mouse. Tumor growth was monitored regularly and once the tumors reached approximately around 50–100 mm^3, treatment with SU056 (50 mg/kg body weight given by oral gavage, 5 days per week) was started. Tumor size and body weight were measured once a week. At the end of treatment, mice were euthanized via deep anesthesia followed by cervical dislocation. Tumors were excised and weighed. Tumor samples were processed for immunoblotting for different markers.

Data set [2] has as its system MDA-MB-231 tumor xenograft. The experiment in a line: Subcutaneous tumor xenograft. Format: in vivo, mouse. The settings on record: 50 mg/kg oral gavage, NSG mice. The method, then: as §1
Data set [3] can be described thus: Body weight during tumor xenograft treatment. As to conditions: 50 mg/kg. Format: in vivo, mouse. The method, then:
as §1
Data S2. Effect of SU056 treatment on body weight, metastatic potential and pharmacokinetic profiling of SU056, related to Figure 2 and 3
Human, mouse and PDX models of TNBC were used for tumor xenograft studies. SU056 treatment was started when tumors reached around ~25-50 mm3 and continued until the experiment reached its 3-week endpoint. Body weight was monitored throughout the study to understand any change in dietary pattern. […]

A further data set concerns the target kinases. The experiment in a line: KINOMEscan multi-kinase profiling. It counts as binding. As to conditions: 10 μM. The method, then:
The multi-kinase inhibition profile of SU056 was determined via the KINOMEScan screening platform (Eurofins discovery). The screening was performed at 10 μM of SU056. The kinase dendrogram was developed using the TREEspot interaction maps online application (Eurofins Discovery). The results are expressed as residual activity (% Control).

Another data set concerns MDA-MB-231 cells. The experiment in a line: Cell cycle analysis (PI, flow cytometry). It counts as cell-based, human. The method, then: (§2) TNBC cells (MDA-MB-231, MDA-MB-468, and SUM159) were seeded (40,000 cells per well) in 12 well plates and grown in regular conditions. The next day, cells were treated with DMSO (control) and indicated SU056 concentrations. At the end of each time point, cells were processed for PI staining as described earlier.[49] Synchronization of cells in G2/M phase was done using nocodazole (200 nM for 16 h) followed by SU056 treatment for 24 h. Cell cycle distribution was then analyzed by flow cytometry using a BD FACS Calibur (BD, USA).
Background: Flow cytometry measures light scatter and fluorescence of single cells or particles in a stream.

For another data set, the system named is MDA-MB-468 cells. The experiment in a line: Cell cycle analysis (PI, flow cytometry). It counts as cell-based, human. The method, then: as §2
For the next data set, the target named is T1, COX2 (Homo sapiens, UniProt P35354).
T1 construct: purchased Eurofins Discovery
The experiment in a line: Enzyme assay (in vitro pharmacology). Format: biochemical. As to conditions: 10 μM. The method, then:
(§3) The compound SU056 was tested for its radioligand binding and enzyme and uptake characteristics by Eurofins lab services (Eurofins discovery). The screening was performed at 10 μM of SU056. The binding was calculated as % inhibition of the binding of a radioactively labeled ligand specific to each target. The SU056 enzyme inhibition effect was determined as % inhibition of control enzyme activity.

In another data set the target is T2, PDE4D2 (Homo sapiens, UniProt Q08499).
T2 construct: purchased Eurofins Discovery
The experiment in a line: Enzyme assay (in vitro pharmacology). Format: biochemical. The settings on record: 10 μM. The method, then: as §3

The subject of data set [4] is pharmacology panel (receptors, channels, transporters, enzymes). Kind of data set: In vitro radioligand binding and enzyme and uptake assay panel. As to conditions: 10 μM. The method, then:
as §3

Where [5] appears, read: nocodazole 200 nM 16 h, then SU056 24 h.

T1 sequence (P35354 18-604): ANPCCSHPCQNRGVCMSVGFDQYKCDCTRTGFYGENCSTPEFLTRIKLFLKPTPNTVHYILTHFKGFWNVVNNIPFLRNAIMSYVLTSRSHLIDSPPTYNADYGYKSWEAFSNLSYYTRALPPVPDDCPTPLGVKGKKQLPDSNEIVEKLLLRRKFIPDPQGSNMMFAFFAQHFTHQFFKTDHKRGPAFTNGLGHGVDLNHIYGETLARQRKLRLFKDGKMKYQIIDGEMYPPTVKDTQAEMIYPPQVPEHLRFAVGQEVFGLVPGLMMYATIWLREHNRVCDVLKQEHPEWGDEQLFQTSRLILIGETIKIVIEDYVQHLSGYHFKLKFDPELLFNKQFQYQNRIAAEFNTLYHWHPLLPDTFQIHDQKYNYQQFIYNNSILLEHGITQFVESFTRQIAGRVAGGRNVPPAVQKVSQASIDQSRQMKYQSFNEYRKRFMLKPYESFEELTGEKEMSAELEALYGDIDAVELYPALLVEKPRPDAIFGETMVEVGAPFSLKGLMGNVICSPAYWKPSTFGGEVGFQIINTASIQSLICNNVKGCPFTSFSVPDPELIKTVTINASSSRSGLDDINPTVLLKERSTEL
T2 sequence (Q08499 303-809 limits assumed): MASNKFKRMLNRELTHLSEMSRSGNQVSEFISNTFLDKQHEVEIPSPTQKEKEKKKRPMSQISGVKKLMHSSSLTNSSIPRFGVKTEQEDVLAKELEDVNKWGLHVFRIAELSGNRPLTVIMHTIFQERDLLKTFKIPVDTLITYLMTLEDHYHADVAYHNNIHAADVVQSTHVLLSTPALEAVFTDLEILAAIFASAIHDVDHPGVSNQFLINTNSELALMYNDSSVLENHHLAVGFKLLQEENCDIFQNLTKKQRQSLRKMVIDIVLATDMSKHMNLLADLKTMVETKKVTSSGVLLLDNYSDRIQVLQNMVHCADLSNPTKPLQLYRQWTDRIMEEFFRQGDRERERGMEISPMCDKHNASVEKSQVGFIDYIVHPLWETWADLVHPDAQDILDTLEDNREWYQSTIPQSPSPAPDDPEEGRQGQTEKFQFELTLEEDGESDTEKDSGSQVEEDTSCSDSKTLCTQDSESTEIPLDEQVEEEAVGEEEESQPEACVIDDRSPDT

On to `O=C1OCC2=C1C(c1cccc(F)c1)c1cc3c(cc1N2CCO)OCO3` (centres unmarked) [SU056, 9-(3-fluorophenyl)-5-(2-hydroxyethyl)-6,9-dihydro-[1,3]dioxolo[4,5-g]furo[3,4-b]quinolin-8(5H)-one], for which the “primary tumor growth reduced compared with vehicle control” value in [1] turned out to be 49.8%. Moreover, the “tumor weight reduced compared with vehicle control” value in data set [1] is 35.1%; in data set [2] it was 44.4%. In [2], the “tumor growth arrested compared to vehicle control” value was 48%. Besides, the “body weight of animals throughout treatment” value is given as “remained the same” in data set [3] (MDA-MB-231, MDA-MB-468, 4T1, EMT6 models) and “remained the same” in data set [3] (PDX models). On kinases, the kinase activity inhibition result is given as “does not inhibit”. Moreover, the “cells in G2/M phase” value in the data set with MDA-MB-231 cells (24 h, control 12%) is 34%. In addition, the “cell death in nocodazole-synchronized cells” value with MDA-MB-231 cells (setting [5]) and in the data set with MDA-MB-468 cells (setting [5]) was “increased cell death” each time. Moreover, the cell cycle effect result in the data set on MDA-MB-468 cells (0.5, 1.0, and 2.0 μM, 12 and 24 h) is “G2/M phase arrest”. Besides, the enzyme activity result on COX2 and at PDE4D2 was “inhibits” throughout. The “effect on major pharmacological parameters (binding and enzyme assays)” value in data set [4] was “does not affect”.
